# Legend:
# [1] = test system: Malignant melanoma (TMX 13); test: Cytotoxicity test (cell survival), MTT assay, TXM 13; type: cell-based; details: 24 hours
# Experimental: (§1) 3. Cytotoxicity Test (Cell Survival Test)
# (§2) Cytotoxicity was conducted through an MTT assay (Chemicon, Serologicals Corporation, USA) as follows.
# (§3) Cells were seeded at a density of 3×10^4 cells/well in 96-well plates (Nunc Do, Denmark).
# (§4) When the cells were at a confluence of about 60˜70%, 24 hours after seeding, the media was exchanged for 100 μl of fresh, serum-free media containing various respective concentrations of ALA or ALA-ester, after which the cells were incubated for an additional 24 hours.
# (§5) An MTT solution (0.5 mg/mL) was added in an amount of […] to each well, followed by incubation for 4 hours to form formazan crystals. A color-developing solution (isopropanol with 0.04 N HCl) was added in an amount of […] per well to solubilize the formazan crystals.
# (§6) The plates were measured for absorbance at 570 nm using an ELISA reader (EMAX, Molecular Device, USA).
# (4) Malignant Melanoma (TMX 13)
# [2] = test system: skin of ICR mice (epidermis, sebaceous gland); test: Cell death in skin tissue after ointment and LED irradiation, H&E (FIGS. 9, 10); type: in vivo; details: for Sebaceous gland morphology after irradiation: 24 hours after visible light 25 J/cm^2, FIG. 10; for Epidermis histology (H&E) after irradiation: 48 hours after visible light 25 J/cm^2, FIGS. 9B and 9C
# Experimental: Ointments comprising ALA or the ALA esters of the present invention at various concentrations (5˜15%) were applied in a predetermined amount ([…]) to the back of shaved ICR mice.
# 1 and 4 hours after the application, the back was irradiated with LED visible light (dose 25 J/cm^2).
# 24, 48 and 72 hours after the irradiation, skin samples were taken from the back of the mice, stained with hematoxylin-eosin (H&E) and observed for cell death.
# [3] = test system: Human epidermal keratinocyte (HEK); test: Cytotoxicity test (cell survival), MTT assay, HEK; type: cell-based; details: 24 hours; for MTT absorbance (OD): 570 nm; for Cell survival Avg (%) ± SD (%): Table 3; for activity at 10 µM / activity at 2000 µM / activity at 50 µM / activity at 100 µM / activity at 500 µM / activity at 1000 µM / activity at 5000 µM: Homo sapiens, Table 2, read-out: Cell survival (% of control C, in brackets); for activity at 10 µM: HEK001, 0.01 mM; for activity at 2000 µM: HEK2, 2 mM; for activity at 50 µM / activity at 100 µM / activity at 500 µM / activity at 1000 µM / activity at 5000 µM: Keratinocyte
# Experimental: as §1, §2, §3, §4, §5, §6
# (1) Human Epidermal Keratinocyte (HEK)
# Cell survival of the human epidermal keratinocytes treated with ALA esters of the present invention and with ALA was compared. The results are summarized in Tables 1 and 2, which are represented in different manners depending on the measurements.
# [4] = test system: Human dermal fibroblast (hF); test: Cytotoxicity test (cell survival), MTT assay, hF; type: cell-based; details: 24 hours
# Experimental: as §1, §2, §3, §4, §5, §6
# (2) Human Dermal Fibroblast (hF)
# [5] = test system: Squamous cell carcinoma (A431); test: Cytotoxicity test (cell survival), MTT assay, A431; type: cell-based; details: 24 hours
# Experimental: as §1, §2, §3, §4, §5, §6
# (3) Squamous Cell Carcinoma (A431)
# A431 cells = test: Fluorescence spectroscopy of PpIX synthesis in A431 cells (FIG. 1); type: cell-based; details: 4 hours incubation, excitation 405 nm, emission 605 nm
# Experimental: 4. Fluorescence Spectroscopy
# The synthesis of PpIX, induced by ALA and unsaturated alkyl esters of ALA in cells and skin tissues, was quantified using fluorescence spectroscopy.
# The intensity of PpIX was measured on a fluorescence spectrophotometer (Uvikon, model 943) with excitation at 408 nm.
# Each cell line was plated at a density of 2×10^5 cells in a 10 cm^2-dish (Falcon), and when the cells reached a confluent state of 70˜80%, serum-free media containing various concentrations (0.001˜1 mM) of ALA or ALA esters was added to the cells, followed by incubation for 4 hours.
# After being washed once with PBS, the cells were detached with a 50% methanol solution containing 1M […] (HClO4) and scraped off using a Costar cell scraper.
# The cells thus harvested were incubated for 5 min and centrifuged.
# The fluorescence of the supernatant thus obtained was determined using a spectrofluorometer with excitation at 405 nm and emission at 605 nm.
# The results are graphed in FIGS. 1 and 2.
compound,measurement,setting,value
"COC(=O)CCC(=O)CN [ALA-1, 5-Aminolevulinic acid methyl ester, reference compound]",Cell survival Avg ± SD (%),"[1]; TXM 13, 0.01 mM",104.69 ± 6.64%
same,Cell survival Avg ± SD (%),"[1]; TXM 13, 0.05 mM",100.34 ± 4.39%
same,Cell survival Avg ± SD (%),"[1]; TXM 13, 0.1 mM",87.37 ± 8.13%
same,Cell survival Avg ± SD (%),"[1]; TXM 13, 0.5 mM",64.59 ± 3.95%
same,Cell survival Avg ± SD (%),"[1]; TXM 13, 1 mM",69.86 ± 8.83%
same,Cell survival Avg ± SD (%),"[1]; TXM 13, 2 mM",69.94 ± 13.42%
same,Sebaceous gland morphology after irradiation,[2],destroyed partially or wholly
same,Epidermis histology (H&E) after irradiation,[2],both necrosis and rejuvenation
same,MTT absorbance (OD),[3]; 0.01 mM,2.952 OD
same,Cell survival Avg (%) ± SD (%),[3]; 0.01 mM,116.69 ± 1%
same,MTT absorbance (OD),[3]; 0.05 mM,3.482 OD
same,Cell survival Avg (%) ± SD (%),[3]; 0.05 mM,94.01 ± 0.71%
same,MTT absorbance (OD),[3]; 0.1 mM,3.313 OD
same,Cell survival Avg (%) ± SD (%),[3]; 0.1 mM,125.58 ± 1.05%
same,MTT absorbance (OD),[3]; 0.5 mM,3.421 OD
same,Cell survival Avg (%) ± SD (%),[3]; 0.5 mM,88.14 ± 0.95%
same,MTT absorbance (OD),[3]; 1 mM,3.435 OD
same,Cell survival Avg (%) ± SD (%),[3]; 1 mM,72.02 ± 3.52%
same,MTT absorbance (OD),[3]; 2 mM,3.093 OD
same,Cell survival Avg (%) ± SD (%),[3]; 2 mM,83.69 ± 1.54%
same,MTT absorbance (OD),[3]; 5 mM,2.398 OD
same,activity at 10 µM,[3],88.8%
same,activity at 2000 µM,[3],93%
same,activity at 50 µM,[3]; 0.05 mM,104%
same,activity at 100 µM,[3]; 0.1 mM,99.6%
same,activity at 500 µM,[3]; 0.5 mM,103%
same,activity at 1000 µM,[3]; 1 mM,103%
same,activity at 5000 µM,[3]; 5 mM,69%
same,Cell survival Avg (%) ± SD (%),[4]; 0.01 mM,110.33 ± 15.01%
same,Cell survival Avg (%) ± SD (%),[4]; 0.05 mM,116.86 ± 17.63%
same,Cell survival Avg (%) ± SD (%),[4]; 0.1 mM,110.44 ± 17.98%
same,Cell survival Avg (%) ± SD (%),[4]; 0.5 mM,113 ± 22.58%
same,Cell survival Avg (%) ± SD (%),[4]; 1 mM,120.48 ± 10.91%
same,Cell survival Avg (%) ± SD (%),[4]; 2 mM,87.65 ± 14.77%
same,Cell survival Avg (%) ± SD (%),"[5]; A431, 0.01 mM",101.03 ± 0.71%
same,Cell survival Avg (%) ± SD (%),"[5]; A431, 0.05 mM",103.06 ± 1.05%
same,Cell survival Avg (%) ± SD (%),"[5]; A431, 0.5 mM",101.75 ± 3.52%
same,Cell survival Avg (%) ± SD (%),"[5]; A431, 1 mM",101.45 ± 1.54%
same,Cell survival Avg (%) ± SD (%),"[5]; A431, 2 mM",98.4 ± 1.2%
same,PpIX synthesis compared with ALA,A431 cells,greater PpIX synthesis in A431 cells than did ALA
"C=CCCCCOC(=O)CCC(=O)CN [ALA-6, 5-Aminolevulinic acid 5-hexenyl ester]",Cell survival Avg ± SD (%),"[1]; TXM 13, 0.01 mM",92.05 ± 9.09%
same,Cell survival Avg ± SD (%),"[1]; TXM 13, 0.05 mM",99.41 ± 8.25%
same,Cell survival Avg ± SD (%),"[1]; TXM 13, 0.1 mM",81.45 ± 6.38%
same,Cell survival Avg ± SD (%),"[1]; TXM 13, 0.5 mM",77.18 ± 8.17%
same,Cell survival Avg ± SD (%),"[1]; TXM 13, 1 mM",76.06 ± 6.81%
same,Cell survival Avg ± SD (%),"[1]; TXM 13, 2 mM",53.24 ± 6.8%
same,Sebaceous gland morphology after irradiation,[2],destroyed partially or wholly
same,Epidermis histology (H&E) after irradiation,[2],both necrosis and rejuvenation
same,MTT absorbance (OD),[3]; 0.01 mM,3.13 OD
same,Cell survival Avg (%) ± SD (%),[3]; 0.01 mM,106.44 ± 0.37%
same,MTT absorbance (OD),[3]; 0.05 mM,3.413 OD
same,Cell survival Avg (%) ± SD (%),[3]; 0.05 mM,77.97 ± 0.88%
same,MTT absorbance (OD),[3]; 0.1 mM,3.18 OD
same,Cell survival Avg (%) ± SD (%),[3]; 0.1 mM,69 ± 3.42%
same,MTT absorbance (OD),[3]; 0.5 mM,2.521 OD
same,Cell survival Avg (%) ± SD (%),[3]; 0.5 mM,61.39 ± 3.22%
same,MTT absorbance (OD),[3]; 1 mM,2.548 OD
same,Cell survival Avg (%) ± SD (%),[3]; 1 mM,62 ± 5.58%
same,MTT absorbance (OD),[3]; 2 mM,2.306 OD
same,Cell survival Avg (%) ± SD (%),[3]; 2 mM,62 ± 1.59%
same,MTT absorbance (OD),[3]; 5 mM,1.388 OD
same,activity at 10 µM,[3],91.2%
same,activity at 2000 µM,[3],67.3%
same,activity at 50 µM,[3]; 0.05 mM,99.4%
same,activity at 100 µM,[3]; 0.1 mM,92.7%
same,activity at 500 µM,[3]; 0.5 mM,73.4%
same,activity at 1000 µM,[3]; 1 mM,74.3%
same,activity at 5000 µM,[3]; 5 mM,40.2%
same,Cell survival Avg (%) ± SD (%),[4]; 0.01 mM,113.29 ± 13.51%
same,Cell survival Avg (%) ± SD (%),[4]; 0.05 mM,98.47 ± 13.03%
same,Cell survival Avg (%) ± SD (%),[4]; 0.1 mM,92.42 ± 13.86%
same,Cell survival Avg (%) ± SD (%),[4]; 0.5 mM,91.41 ± 9.04%
same,Cell survival Avg (%) ± SD (%),[4]; 1 mM,80.78 ± 5.6%
same,Cell survival Avg (%) ± SD (%),[4]; 2 mM,86.12 ± 5.37%
same,Cell survival Avg (%) ± SD (%),"[5]; A431, 0.01 mM",101.04 ± 0.88%
same,Cell survival Avg (%) ± SD (%),"[5]; A431, 0.05 mM",91.32 ± 3.42%
same,Cell survival Avg (%) ± SD (%),"[5]; A431, 0.1 mM",86.8 ± 3.22%
same,Cell survival Avg (%) ± SD (%),"[5]; A431, 0.5 mM",84.16 ± 5.58%
same,Cell survival Avg (%) ± SD (%),"[5]; A431, 1 mM",88.47 ± 4.59%
same,Cell survival Avg (%) ± SD (%),"[5]; A431, 2 mM",66.21 ± 4.43%
same,PpIX synthesis compared with ALA,A431 cells,greater PpIX synthesis in A431 cells than did ALA

# From patent publication US8198325B2, “Unsaturated alkyl esters of 5-aminolevulinic acid, their preparation and their use” (Industry Foundation of Chonnam National University, priority 2006, dated 2012)
